# Laboratory results taken from ChEMBL document CHEMBL1201862, “PubChem BioAssay data set” (2004).
#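 48-hour exposure; five concentrations; linearly interpolated endpoints. GI50 marks 50% less growth.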 Active and inactive are the calls of the source. Cut-off read from the data, not from the text of the source: active = GI50 up to about 1.1 µM and inactive = higher.
# What was measured:
# Assay in all cases: growth of human tumour cells (NCI), 48 h
# [1] = system: A498
# [2] = system: MDA-MB-435
# [3] = system: PC-3
# [4] = system: UACC-257
# [5] = system: BT-549
# [6] = system: K562
# [7] = system: NCI/ADR-RES
# [8] = system: TK-10
# [9] = system: SF-295
# [10] = system: MDA-MB-231
# [11] = system: RXF 393
# [12] = system: SR
# [13] = system: NCI-H522
# [14] = system: ACHN
# [15] = system: SK-OV-3
# [16] = system: SW-620
# [17] = system: OVCAR-3
# [18] = system: UACC-62
# [19] = system: EKVX
# [20] = system: RPMI-8226
# [21] = system: SNB-19
# [22] = system: 786-0
# [23] = system: HCC 2998
# [24] = system: T47D
# [25] = system: IGROV-1
# [26] = system: SF-268
# [27] = system: OVCAR-4
# [28] = system: NCI-H23
# [29] = system: KM12
# [30] = system: MDA-N
# [31] = system: MOLT-4
# [32] = system: COLO 205
# [33] = system: CCRF-CEM
# [34] = system: SK-MEL-28
# [35] = system: MCF7
# [36] = system: HT-29
# [37] = system: LOX IMVI
# [38] = system: SK-MEL-5
# [39] = system: M14
# [40] = system: DU-145
# [41] = system: HCT-116
# [42] = system: A549
# [43] = system: HCT-15
# [44] = system: CAKI-1
# [45] = system: SF-539
# [46] = system: NCI-H460
# [47] = system: OVCAR-5
# [48] = system: UO-31
# [49] = system: U-251
# [50] = system: OVCAR-8
# [51] = system: SK-MEL-2
# [52] = system: SN12C
# [53] = system: HOP-62
# [54] = system: HOP-92
# [55] = system: NCI-H226
# [56] = system: Malme-3M
# [57] = system: HL-60
# [58] = system: Hs-578T
# [59] = system: SNB-75
smiles,measurement,setting,value
c1ccc(-c2cc(-c3cc(-c4ccccc4)no3)on2)cc1,GI50,[1],> 100 µM (inactive)
same,GI50,[2],> 100 µM (inactive)
same,GI50,[3],> 100 µM (inactive)
same,GI50,[4],> 100 µM (inactive)
same,GI50,[5],> 100 µM (inactive)
same,GI50,[6],17.9 µM (inactive)
same,GI50,[7],29.7 µM (inactive)
same,GI50,[8],> 100 µM (inactive)
same,GI50,[9],53.8 µM (inactive)
same,GI50,[10],24.1 µM (inactive)
same,GI50,[11],67.1 µM (inactive)
same,GI50,[12],11.5 µM (inactive)
same,GI50,[13],> 100 µM (inactive)
same,GI50,[14],29.3 µM (inactive)
same,GI50,[15],28.6 µM (inactive)
same,GI50,[16],> 100 µM (inactive)
same,GI50,[17],39.5 µM (inactive)
same,GI50,[18],> 100 µM (inactive)
same,GI50,[19],72.6 µM (inactive)
same,GI50,[20],> 100 µM (inactive)
same,GI50,[21],49.3 µM (inactive)
same,GI50,[22],72.1 µM (inactive)
same,GI50,[23],> 100 µM (inactive)
same,GI50,[24],81.3 µM (inactive)
same,GI50,[25],35.2 µM (inactive)
same,GI50,[26],66.1 µM (inactive)
same,GI50,[27],19.4 µM (inactive)
same,GI50,[28],49.1 µM (inactive)
same,GI50,[29],> 100 µM (inactive)
same,GI50,[30],> 100 µM (inactive)
same,GI50,[31],25.2 µM (inactive)
same,GI50,[32],45.6 µM (inactive)
same,GI50,[33],27.4 µM (inactive)
same,GI50,[34],> 100 µM (inactive)
same,GI50,[35],> 100 µM (inactive)
same,GI50,[36],> 100 µM (inactive)
same,GI50,[37],40.8 µM (inactive)
same,GI50,[38],> 100 µM (inactive)
same,GI50,[39],> 100 µM (inactive)
same,GI50,[40],> 100 µM (inactive)
same,GI50,[41],55.8 µM (inactive)
same,GI50,[42],53.2 µM (inactive)
same,GI50,[43],> 100 µM
same,GI50,[44],> 100 µM (inactive)
same,GI50,[45],15.1 µM (inactive)
same,GI50,[46],45.1 µM (inactive)
same,GI50,[47],> 100 µM (inactive)
same,GI50,[48],> 100 µM (inactive)
same,GI50,[49],29.2 µM (inactive)
same,GI50,[50],13.8 µM (inactive)
same,GI50,[51],> 100 µM (inactive)
same,GI50,[52],42.5 µM (inactive)
same,GI50,[53],72.1 µM (inactive)
same,GI50,[54],24.5 µM (inactive)
same,GI50,[55],71 µM (inactive)
same,GI50,[56],> 100 µM (inactive)
same,GI50,[57],> 100 µM (inactive)
same,GI50,[58],47.6 µM (inactive)
CCOC(=O)CNC1=NNS(=O)(=O)c2ccccc21,GI50,[1],20.8 µM (inactive)
same,GI50,[2],> 100 µM (inactive)
same,GI50,[3],> 100 µM (inactive)
same,GI50,[4],> 100 µM (inactive)
same,GI50,[5],> 100 µM (inactive)
same,GI50,[6],> 100 µM (inactive)
same,GI50,[7],> 100 µM (inactive)
same,GI50,[8],> 100 µM (inactive)
same,GI50,[9],> 100 µM (inactive)
same,GI50,[10],> 100 µM (inactive)
same,GI50,[11],> 100 µM (inactive)
same,GI50,[12],97.1 µM (inactive)
same,GI50,[13],> 100 µM (inactive)
same,GI50,[14],> 100 µM (inactive)
same,GI50,[15],> 100 µM (inactive)
same,GI50,[16],> 100 µM (inactive)
same,GI50,[17],> 100 µM (inactive)
same,GI50,[18],> 100 µM (inactive)
same,GI50,[19],> 100 µM (inactive)
same,GI50,[59],> 100 µM (inactive)
same,GI50,[20],> 100 µM (inactive)
same,GI50,[21],> 100 µM (inactive)
same,GI50,[22],> 100 µM (inactive)
same,GI50,[23],> 100 µM (inactive)
same,GI50,[24],> 100 µM (inactive)
same,GI50,[25],> 100 µM (inactive)
same,GI50,[26],> 100 µM (inactive)
same,GI50,[27],> 100 µM (inactive)
same,GI50,[28],> 100 µM (inactive)
same,GI50,[29],> 100 µM (inactive)
same,GI50,[30],> 100 µM (inactive)
same,GI50,[31],54.1 µM (inactive)
same,GI50,[32],> 100 µM (inactive)
same,GI50,[33],59.8 µM (inactive)
same,GI50,[34],> 100 µM (inactive)
same,GI50,[35],> 100 µM (inactive)
same,GI50,[36],> 100 µM (inactive)
same,GI50,[37],> 100 µM (inactive)
same,GI50,[38],> 100 µM (inactive)
same,GI50,[39],> 100 µM (inactive)
same,GI50,[40],> 100 µM (inactive)
same,GI50,[41],> 100 µM (inactive)
same,GI50,[42],> 100 µM (inactive)
same,GI50,[43],> 100 µM
same,GI50,[44],> 100 µM (inactive)
same,GI50,[45],> 100 µM (inactive)
same,GI50,[46],32.6 µM (inactive)
same,GI50,[47],> 100 µM (inactive)
same,GI50,[48],> 100 µM (inactive)
same,GI50,[49],> 100 µM (inactive)
same,GI50,[50],> 100 µM (inactive)
same,GI50,[52],> 100 µM (inactive)
same,GI50,[53],> 100 µM (inactive)
same,GI50,[54],> 100 µM (inactive)
same,GI50,[55],> 100 µM (inactive)
same,GI50,[56],> 100 µM (inactive)
same,GI50,[57],66.5 µM (inactive)
same,GI50,[58],> 100 µM (inactive)
COC(=O)C1=CO[C@@H](OC2OC(CO)C(O)C(O)C2O)[C@H]2[C@@H](C)[C@@H](O)[C@@H](O)[C@@H]12 (some centres not stated),GI50,[1],> 100 µM (inactive)
same,GI50,[2],> 100 µM (inactive)
same,GI50,[3],> 100 µM (inactive)
same,GI50,[4],> 100 µM (inactive)
same,GI50,[5],> 100 µM (inactive)
same,GI50,[7],> 100 µM (inactive)
same,GI50,[8],> 100 µM (inactive)
same,GI50,[9],> 100 µM (inactive)
same,GI50,[10],> 100 µM (inactive)
same,GI50,[11],> 100 µM (inactive)
same,GI50,[12],36.6 µM (inactive)
same,GI50,[13],> 100 µM (inactive)
same,GI50,[14],> 100 µM (inactive)
same,GI50,[15],> 100 µM (inactive)
same,GI50,[16],> 100 µM (inactive)
same,GI50,[17],> 100 µM (inactive)
same,GI50,[18],> 100 µM (inactive)
same,GI50,[19],> 100 µM (inactive)
same,GI50,[59],> 100 µM (inactive)
same,GI50,[20],> 100 µM (inactive)
same,GI50,[22],> 100 µM (inactive)
same,GI50,[23],> 100 µM (inactive)
same,GI50,[24],> 100 µM (inactive)
same,GI50,[25],> 100 µM (inactive)
same,GI50,[26],> 100 µM (inactive)
same,GI50,[27],> 100 µM (inactive)
same,GI50,[28],> 100 µM (inactive)
same,GI50,[29],> 100 µM (inactive)
same,GI50,[30],> 100 µM (inactive)
same,GI50,[31],> 100 µM (inactive)
same,GI50,[32],> 100 µM (inactive)
same,GI50,[34],> 100 µM (inactive)
same,GI50,[35],> 100 µM (inactive)
same,GI50,[36],> 100 µM (inactive)
same,GI50,[37],> 100 µM (inactive)
same,GI50,[38],> 100 µM (inactive)
same,GI50,[39],> 100 µM (inactive)
same,GI50,[40],> 100 µM (inactive)
same,GI50,[41],> 100 µM (inactive)
same,GI50,[42],> 100 µM (inactive)
same,GI50,[43],> 100 µM
same,GI50,[44],> 100 µM (inactive)
same,GI50,[45],> 100 µM (inactive)
same,GI50,[47],> 100 µM (inactive)
same,GI50,[48],> 100 µM (inactive)
same,GI50,[49],> 100 µM (inactive)
same,GI50,[50],> 100 µM (inactive)
same,GI50,[51],> 100 µM (inactive)
same,GI50,[52],> 100 µM (inactive)
same,GI50,[53],> 100 µM (inactive)
same,GI50,[54],> 100 µM (inactive)
same,GI50,[55],> 100 µM (inactive)
same,GI50,[56],> 100 µM (inactive)
same,GI50,[57],> 100 µM (inactive)
same,GI50,[58],> 100 µM (inactive)
CC(C)Oc1cc(O)c2c(c1)OCC=C2CCC(=O)O,GI50,[1],21.4 µM (inactive)
same,GI50,[2],23.8 µM (inactive)
same,GI50,[3],54.6 µM (inactive)
same,GI50,[4],20.2 µM (inactive)
same,GI50,[5],31.3 µM (inactive)
same,GI50,[6],28.4 µM (inactive)
same,GI50,[7],28.4 µM (inactive)
same,GI50,[8],20.3 µM (inactive)
same,GI50,[9],43.5 µM (inactive)
same,GI50,[10],36.8 µM (inactive)
same,GI50,[11],69.5 µM (inactive)
same,GI50,[12],34 µM (inactive)
same,GI50,[13],21.2 µM (inactive)
same,GI50,[14],22.1 µM (inactive)
same,GI50,[15],49 µM (inactive)
same,GI50,[16],27.8 µM (inactive)
same,GI50,[17],41 µM (inactive)
same,GI50,[18],26.9 µM (inactive)
same,GI50,[19],17.3 µM (inactive)
same,GI50,[59],31 µM (inactive)
same,GI50,[20],24.4 µM (inactive)
same,GI50,[21],38 µM (inactive)
same,GI50,[22],26.3 µM (inactive)
same,GI50,[24],39.3 µM (inactive)
same,GI50,[25],35.7 µM (inactive)
same,GI50,[26],40.6 µM (inactive)
same,GI50,[27],39.3 µM (inactive)
same,GI50,[28],37.2 µM (inactive)
same,GI50,[29],31.5 µM (inactive)
same,GI50,[30],21.7 µM (inactive)
same,GI50,[31],23.8 µM (inactive)
same,GI50,[32],16.2 µM (inactive)
same,GI50,[33],22.8 µM (inactive)
same,GI50,[34],36 µM (inactive)
same,GI50,[35],13.9 µM (inactive)
same,GI50,[36],19.9 µM (inactive)
same,GI50,[37],33.1 µM (inactive)
same,GI50,[38],18.4 µM (inactive)
same,GI50,[39],25.9 µM (inactive)
same,GI50,[40],52.5 µM (inactive)
same,GI50,[41],20.4 µM (inactive)
same,GI50,[42],28.1 µM (inactive)
same,GI50,[43],23.2 µM
same,GI50,[44],37.2 µM (inactive)
same,GI50,[46],33 µM (inactive)
same,GI50,[47],31.8 µM (inactive)
same,GI50,[48],24.1 µM (inactive)
same,GI50,[49],67.1 µM (inactive)
same,GI50,[50],36.1 µM (inactive)
same,GI50,[51],26.8 µM (inactive)
same,GI50,[52],21.3 µM (inactive)
same,GI50,[53],30.5 µM (inactive)
same,GI50,[54],20 µM (inactive)
same,GI50,[55],15.5 µM (inactive)
same,GI50,[57],20.6 µM (inactive)
same,GI50,[58],42.2 µM (inactive)
